The text below walks through data of patent publication US5858684A, “Method of screening calcium receptor-active molecules” (priority 1995, dated 1999).

One assay can be described thus: circulating PTH in rats. The class given is in vivo, rat.
A short description of assay [1]: serum/blood ionized Ca2+ in rats. It counts as in vivo, rat. As to conditions: i.p. The procedure: (§1) Compounds shown to activate the bovine parathyroid cell calcium receptor in vitro were tested for hypocalcemic activity in vivo. Male Sprague-Dawley rats (200 g) were maintained on a low calcium diet for one week prior to receiving test substance or vehicle as control. Blood was collected from the tail vein three hours after the intraperitoneal administration of NPS 467. […] Serum total calcium, albumin and phosphate were measured by techniques well known in the art.
Rats (male, Sprague-Dawley, 250-300 g) were fed standard rat chow and fasted overnight prior to the experiment. NPS R-467 was suspended in corn oil and administered as a single oral dose through a gavage needle. Three hours later a sample of blood was taken from the tail vein and assessed for ionized Ca^2+ levels.

The nature of assay [2]: serum albumin and phosphate in rats. It counts as in vivo, rat. Particulars: any dose examined. Here is the method:
as §1

The target in assay [3] is T1, bovine parathyroid cell calcium receptor (BoPCaR 1) (Bos taurus, UniProt P35384).
T1 construct: Xenopus oocytes were injected with BoPCaR 1, the 5.3 Kb cDNA encoding a bovine parathyroid cell calcium receptor; expressed in transfected cells; host or cells: Xenopus laevis oocytes injected with cRNA/cDNA of BoPCaR 1
T1 sequence (P35384 20-1085): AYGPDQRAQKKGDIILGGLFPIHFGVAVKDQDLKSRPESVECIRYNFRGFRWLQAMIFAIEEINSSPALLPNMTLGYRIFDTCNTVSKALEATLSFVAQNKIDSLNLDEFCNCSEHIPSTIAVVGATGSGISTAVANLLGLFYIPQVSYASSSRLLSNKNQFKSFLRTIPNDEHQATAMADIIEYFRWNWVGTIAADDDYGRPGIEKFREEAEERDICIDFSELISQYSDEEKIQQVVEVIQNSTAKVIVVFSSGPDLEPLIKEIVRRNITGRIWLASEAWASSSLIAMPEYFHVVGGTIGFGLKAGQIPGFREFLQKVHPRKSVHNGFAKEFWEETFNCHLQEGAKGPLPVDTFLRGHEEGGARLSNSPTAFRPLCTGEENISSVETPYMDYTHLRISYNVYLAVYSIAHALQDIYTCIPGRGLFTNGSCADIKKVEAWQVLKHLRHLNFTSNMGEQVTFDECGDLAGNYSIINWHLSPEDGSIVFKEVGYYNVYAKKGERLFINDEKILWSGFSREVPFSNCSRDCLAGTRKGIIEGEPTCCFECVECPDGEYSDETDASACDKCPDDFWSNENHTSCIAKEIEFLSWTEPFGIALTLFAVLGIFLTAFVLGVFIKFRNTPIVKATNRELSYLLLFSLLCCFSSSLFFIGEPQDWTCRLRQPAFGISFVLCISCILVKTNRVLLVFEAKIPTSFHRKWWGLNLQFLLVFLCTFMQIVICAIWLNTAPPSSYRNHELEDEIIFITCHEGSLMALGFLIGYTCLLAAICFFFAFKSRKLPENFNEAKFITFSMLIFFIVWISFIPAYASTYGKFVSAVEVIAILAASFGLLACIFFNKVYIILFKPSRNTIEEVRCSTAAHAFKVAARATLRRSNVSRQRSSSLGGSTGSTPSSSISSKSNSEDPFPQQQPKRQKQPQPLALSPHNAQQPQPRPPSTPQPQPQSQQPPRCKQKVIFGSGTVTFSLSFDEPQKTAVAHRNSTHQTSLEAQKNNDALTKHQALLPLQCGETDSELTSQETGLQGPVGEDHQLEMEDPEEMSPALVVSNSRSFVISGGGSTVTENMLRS
In words: inositol 1,4,5-triphosphate in Xenopus oocytes expressing BoPCaR 1. It counts as cell-based. As to conditions: 10 μg/ml, 48 hours. The text has this:
These responses are mediated by the following series of biochemical events:
(1) Activation of phospholipase C by a pertussis toxin-sensitive guanine nucleotide regulatory (G) protein resulting in 4-7 fold increases in the levels of inositol 1,4,5-triphosphate (IP3).

For `COc1cccc(C(C)NCCCc2ccccc2)c1` (racemic) [NPS 467], in “circulating PTH in rats”, the “circulating levels of PTH” value is reported as “dose-dependent reduction in circulating levels of PTH”. In addition, the “serum or blood Ca2+” value in assay [1] (low calcium diet, 3 hours after dosing, rats) is reported as “dose-dependent reduction in serum or whole blood”. In addition, the “time of maximal hypocalcemic effect” value in assay [1] (returned toward control levels after 24 hours) is “maximal within three hours”. In addition, the “serum albumin or phosphate levels” value in assay [2] is reported as “no change in serum albumin or phosphate levels”.

As to pertussis toxin, in assay [3], the “inhibition of the increase in IP3 by pertussis toxin” value is on record as 75%.
